Row | logP | Compound
1 | 4.05 | Clc1cnc(-c2ccccc2)c(-c2ccccc2)n1
2 | 4.73 | CCOc1cnc(-c2ccccc2)c(-c2ccccc2)n1
3 | 3.41 | [O-][n+]1ccnc(-c2ccc(Br)cc2)c1-c1ccc(Br)cc1
4 | 4.3 | COc1ccc(-c2ncc(Cl)nc2-c2ccc(OC)cc2)cc1
5 | 4.66 | CCc1ncc(-c2ccccc2)nc1-c1ccccc1
6 | 4.71 | CC(C)c1cnc(-c2ccccc2)c(-c2ccccc2)n1
7 | 4.29 | Cc1ncc(-c2ccccc2)nc1-c1ccccc1
8 | 3.41 | COC(=O)c1cnc(-c2ccc(OC)cc2)c(-c2ccc(OC)cc2)n1
9 | 3.52 | Cc1cnc(-c2ccccc2)c(-c2ccccc2)n1
10 | 3.75 | Cc1cnc(-c2ccc(F)cc2)c(-c2ccc(F)cc2)n1
11 | 4.28 | Cc1nc(-c2ccccc2)cnc1-c1ccccc1
12 | 5.18 | COc1ccccc1Cc1cnc(-c2ccccc2)c(-c2ccccc2)n1
13 | 3.7 | COc1ccc(-c2ncc(C#N)nc2-c2ccc(OC)cc2)cc1
14 | 3.42 | COc1ccc(-c2nccnc2-c2ccc(OC)cc2)cc1
15 | 3.66 | [O-][n+]1cc(Cl)nc(-c2ccc(Cl)cc2)c1-c1ccc(Cl)cc1
16 | 5.2 | COc1cccc(Cc2cnc(-c3ccccc3)c(-c3ccccc3)n2)c1

Row | logP | Compound
17 | 4.83 | CCc1nc(CC)c(-c2ccccc2)nc1-c1ccccc1
18 | 4.47 | COc1ccc(-c2ncc(OC)nc2-c2ccc(OC)cc2)cc1
19 | 1.08 | Cc1nc(Cl)c(C)[n+]([O-])c1Cl
20 | 4.21 | COc1cnc(-c2ccccc2)c(-c2ccccc2)n1
21 | 0.19 | Cc1ncc(C)[n+]([O-])c1Cl
22 | 2.52 | Cc1cnc(-c2ccc(C#N)cc2)c(-c2ccc(C#N)cc2)n1
23 | 4.1 | COc1ccc(-c2nc(C)c(C)nc2-c2ccc(OC)cc2)cc1
24 | 3.19 | c1ccc(-c2nccnc2-c2ccccc2)cc1
25 | 4.22 | CCc1cnc(-c2ccc(OC)cc2)c(-c2ccc(OC)cc2)n1
26 | 0.44 | Cc1c[n+]([O-])c(C)c(Cl)n1
27 | 4.1 | Cc1ccc(-c2nccnc2-c2ccc(C)cc2)cc1
28 | 5 | CCOc1cnc(-c2ccc(OC)cc2)c(-c2ccc(OC)cc2)n1
29 | 2.07 | c1ccc(-c2cnccn2)cc1
30 | 3.66 | COc1ccc(-c2ncc(C)nc2-c2ccc(OC)cc2)cc1
31 | 2.24 | COc1ccc(-c2cnccn2)cc1
32 | 2.4 | Cc1nc(Cl)c(C)nc1Cl
